The nature of series [1]: Toxicity in iv dosed Sprague-Dawley rat administered qd for 28 days. The following applies: in vivo. The format is organism-based.
For the next series, the system named is MDA-MB-231. In words: Potency index, ratio of Oridonin EC50 to compound EC50 for human MDA-MB-231. The format is functional.
Series [2] is described as follows: Antiproliferative activity against human MDA-MB-231 cells. The format is functional, cell-based.
The nature of series [3]: Antiproliferative activity against human MCF7 cells. The format is functional, cell-based.
The nature of series [4]: Antiproliferative activity against human […] cells after 24 hrs by MTT assay. The format is functional, cell-based. A general note: Tetrazolium assays rely on reduction of a dye to a coloured formazan, in cell work by metabolically active cells.
A short description of series [5]: Antitumor activity against H22 cells xenografted in ICR mouse assessed as tumor growth inhibition at 20 mg/kg/day, ip administered for 4 consecutive days relative to control. The format is functional. The conditions noted are these: read-out: TGI.
Series [6] in a line: Cytotoxicity against human K562 cells by MTT assay. The format is functional, cell-based.
Series [7] in a line: Antiproliferative activity against human MDA-MB-231 cells measured after 48 hrs by MTT assay. The conditions noted are these: MDA-MB-231, 48 h. The format is functional, cell-based.
Series [8] in a line: Antiproliferative activity against human K562 cells after 72 hrs by MTT assay. The following applies: K562, 72 h. The format is functional, cell-based.
Series [9] in a line: Oral bioavailability in Wistar rat at 20 mg/kg administered as single dose through gavage measured after 48 hrs by HPLC/ESI-MS analysis. The format is ADME, organism-based. The following applies: in vivo.
Series [10] in a line: Anticancer activity against human MT2 cells measured after 48 hrs by trypan blue assay. The format is functional, cell-based. The following applies: MT2, 48 h.
The nature of series [11]: Antiproliferative activity against human MGC803 cells after 72 hrs by MTT assay. The format is functional, cell-based. The conditions noted are these: MGC-803, 72 h.
Series [12] in a line: Anticancer activity against human LX2 cells measured after 48 hrs by alamar blue assay. The format is functional, cell-based. The conditions noted are these: LX-2, 48 h. (In general: Alamar Blue is a resazurin reagent that responds to reducing activity.)
Series [13] is described as follows: Anticancer activity against human RPMI8226 cells measured after 48 hrs by trypan blue assay. The format is functional, cell-based. The following applies: RPMI-8226, 48 h.
A short description of series [14]: Anticancer activity against human SW480 cells measured after 24 hrs by MTT assay. The format is functional, cell-based. The conditions noted are these: SW480, 24 h.
The nature of series [15]: Anticancer activity against human K562/ADR cells measured after 24 hrs by MTT assay. The format is functional, cell-based.
Series [16] in a line: Anticancer activity against human MT1 cells measured after 48 hrs by trypan blue assay. The format is functional, cell-based. The following applies: MT1, 48 h.
Series [17] in a line: Anticancer activity against human U266 cells measured after 48 hrs by trypan blue assay. The following applies: U-266, 48 h. The format is functional, cell-based.
The nature of series [18]: Anticancer activity against human Kasumi-1 cells measured after 48 hrs by CCK8 assay. The format is functional, cell-based. The following applies: Kasumi 1, 48 h.
A short description of series [19]: Oral bioavailability in Wistar rat at 10 mg/kg, ip administered as single dose measured after 36 hrs by HPLC/ESI-MS analysis. The format is ADME, organism-based. The following applies: in vivo, intraperitoneal.
The nature of series [20]: Antiproliferative activity against human […] cells after 72 hrs by MTT assay. The format is functional, cell-based.
Series [21] can be described thus: Anticancer activity against human K562 cells measured after 24 hrs by MTT assay. The conditions noted are these: K562, 24 h. The format is functional, cell-based.
Series [22] is described as follows: Anticancer activity against human SW620 cells measured after 24 hrs by MTT assay. The format is functional, cell-based. The conditions noted are these: SW-620, 24 h.
Series [23] in a line: Anticancer activity against human LNCAP cells measured after 48 hrs by CCK8 assay. The format is functional, cell-based.
Series [24] can be described thus: Antiproliferative activity against human ER-positive MCF7 cells measured after 48 hrs by MTT assay. The format is functional, cell-based. The following applies: MCF7, 48 h.
Series [25] in a line: Anticancer activity against human Hep2 cells measured after 24 hrs by MTT assay. The format is functional, cell-based. The conditions noted are these: HEp-2, 24 h.
Series [26] is described as follows: Anticancer activity against AML cells isolated from AML-ETO9a leukemia mouse measured after 48 hrs by CCK8 assay. The format is functional, cell-based.
A short description of series [27]: Antiproliferative activity against human MCF7/ADR cells measured after 48 hrs by MTT assay. The format is functional, cell-based. The conditions noted are these: NCI/ADR-RES.
Series [28] can be described thus: Anticancer activity against human Jurkat cells measured after 48 hrs by trypan blue assay. The format is functional, cell-based.
Series [29] can be described thus: Antitumor activity against human MGC803 cells xenografted in ICR mouse assessed as tumor growth inhibition at 40 mg/kg/day, ip for 25 consecutive days relative to control. The format is functional. The conditions noted are these: MGC-803, ip, read-out: TGI. For orientation: In xenograft studies the graft and the host belong to different species.
The nature of series [30]: Anticancer activity against human PC3 cells measured after 48 hrs by CCK8 assay. The format is functional, cell-based. The following applies: PC-3, 48 h.
A short description of series [31]: Anticancer activity against rat HSC-T6 cells measured after 48 hrs by alamar blue assay. The format is functional, cell-based. The following applies: HSC-T6, 48 h.
The nature of series [32]: Antiproliferative activity against human ER-triple negative MDA-MB-468 cells measured after 48 hrs by MTT assay. The following applies: MDA-MB-468, 48 h. The format is functional, cell-based.
Series [33] in a line: Antiproliferative activity against human CaEs17 cells after 72 hrs by MTT assay. The format is functional, cell-based. The conditions noted are these: CaEs17, 72 h.

As usually defined, the NOAEL is the highest tested level that showed no adverse finding. The term EC50 denotes the concentration giving half of the maximal effect. Low readings indicate an effect from little substance, high ones a need for much substance. As usually defined, the bioavailability is the share of a dose that reaches the circulation, judged against a reference dose that is usually intravenous. The low end stands for little systemic uptake, the high end for much systemic uptake.

Some results are limits rather than exact numbers.

In turn, `C=C1C(=O)[C@]23[C@H](OC(=O)[C@H](C)N)[C@H]1CC[C@H]2[C@@]12CO[C@@]3(O)[C@@H](O)[C@@H]1C(C)(C)CC[C@@H]2O.O=C(O)C(F)(F)F` displayed a no observed adverse effect level (NOAEL) at 672 h in [1] of 40 mg/kg.

Take `C=CCNc1nc2c(s1)CC(C)(C)[C@H]1[C@H](O)[C@]3(O)OC[C@@]21[C@@H]1CC[C@H]2C(=C)C(=O)[C@]13[C@@H]2O`: in the series with MDA-MB-231, the “Ratio EC50” value stood at 147. The EC50 in series [2] and in series [3] was 0.2 µM throughout.

For the compound `C=C1C(=O)[C@]23[C@H](OC(=O)CC(CCCCCCCCCCCC)C(=O)O)[C@H]1CC[C@H]2[C@@]12CO[C@@]3(O)[C@@H](O)[C@@H]1C(C)(C)CC[C@@H]2O` (stereo not given in full), the half-maximal effective concentration (EC50) in series [4] amounted to 2.06 µM. Further, the inhibition in vivo at 20 mg/kg/day in [5] was determined as 63.7%.

As to `CC(=O)[C@@H]1CC[C@H]2[C@@]34CO[C@@]5(O)[C@@H](OC(=O)[C@]25[C@@H]1O)[C@@H]3C(C)(C)CC[C@@H]4O`, in [6], the EC50 was 18.5 µM.

With `C=C1C(=O)[C@@]23[C@@H]4OC(C)(C)O[C@@]25OC[C@]2([C@@H](n6cc(-c7ccccc7)nn6)C=CC(C)(C)[C@H]2[C@@H]5O)[C@@H]3CC[C@@H]14`, in the series on MDA-MB-231, the “Ratio EC50” value was 61. The midpoint of the response in [7], the EC50, lay at 0.48 µM.

For `C=C1C(=O)[C@]23[C@H](O)[C@H]1CC[C@H]2[C@@]12CO[C@]3(O)[C@@H](O)[C@@H]1C(C)(C)CC[C@@H]2O` [ORIDONIN], the EC50 in series [8] is 4.76 µM; in series [2] it was 29.4 µM; in series [4], 29.8 µM; in [10], 1.2 to 2.7 µM; in series [11], 5.69 µM; in [12], 7 µM. Also, the EC50 in series [13] was 1.2 to 2.7 µM; in [14], 20.8 to 37 µM; in series [15], less than 40 µM; in series [16], 1.2 to 2.7 µM; in [17], 1.2 to 2.7 µM; in series [18], 1.33 µM. Also, the EC50 is 7.48 µM in series [20]; 14.6 µM in series [21]; 20.8 to 37 µM in [22]; 25 µM in series [23]; 4.4 µM in series [24]; 37.1 µM in series [25]. In addition, the half-maximal effective concentration (EC50) in series [26] was 2.5 µM; in [27], 34.8 µM; in [28], 1.2 to 2.7 µM; in [7], 28 to 29.4 µM; in [3] it was 6.6 µM; in series [30], 25 µM. Further, the EC50 in series [31] was found to be 7 µM; in [32], 5.3 µM; in series [33], 11 µM. Besides, the bioavailability in series [9] was 4.3%; in series [19] it was 12.6%. Also, in [29], the inhibition in vivo at 40 mg/kg/day was 37.3%. Also, the inhibition in vivo at 20 mg/kg/day in series [5] was determined as 42.7%.
